Patent US20190022167A1, “METHODS AND COMPOSITIONS FOR THE PREVENTION AND TREATMENT OF DUCHENNE MUSCULAR DYSTROPHY” (priority 2016, published 2019)
Where no end group is shown, it is not given here. [ ]: non-standard residue; d: D form.

How the values were obtained:
[1] = tested on: subjects at risk of having DMD; assay: Prevention of DMD in humans (Example 2); assay type: in vivo, human; conditions: for Effect of combination with one or more additional therapeutic agents: compared to peptides or additional agents alone, expected; for Onset of DMD: daily 1%, 5% or 10% solution, predicted
Text: Subjects at risk of having DMD receive daily administrations of 1%, 5% or 10% solution of aromatic-cationic peptide, such as 2′6′-Dmt-D-Arg-Phe-Lys-NH2, Phe-D-Arg-Phe-Lys-NH2, or D-Arg-2′6′-Dmt-Lys-Phe-NH2, or a pharmaceutically acceptable salt thereof, such as acetate, tartrate, hydrochloride salt, or trifluoroacetate salt, alone or in combination with one or more additional therapeutic agents for the treatment or prevention of DMD. Peptides and/or additional therapeutic agents selected from the group consisting of: corticosteroids, Oxandrolone, ACE inhibitors, P188 (Poloxamer 188), beta-blockers, diuretics, angiotensin receptor blockers (ARBs), idebenone, alendronate, calcium with vitamin D, albuterol, dantrolene, pentoxifylline, carnitine, Coenzyme Q10, creatine, fish oil, green tea extracts, Vitamin E, PTC-124 (PTC Therapeutics Inc., South Plainfield, N.J.), AVI-4658 phosphorodiamidate morpholino oligomer, azathioprine and cyclosporine, are administered orally, topically, systemically, intravenously, subcutaneously, intraperitoneally, or intramuscularly according to methods known in the art. Dosages of the one or more additional therapeutic agents will range between 0.1 mg/kg to 50 mg/kg. Subjects will be evaluated weekly for the presence and/or severity of signs and symptoms associated with DMD, including, but not limited to, e.g., progressive proximal weakness with onset in the legs and pelvis, hyperlordosis with wide-based gait, hypertrophy of weak muscles, pseudohypertrophy (enlargement of calf and deltoid muscles with fat and fibrotic tissue), reduced muscle contractility on electrical stimulation in advanced stages of the disease, delayed motor milestones, progressive inability to ambulate, heel cord contractures, paralysis, fatigue, skeletal deformities including scoliosis, muscle fiber deformities, cardiomyopathy, congestive heart failure or arrhythmia, muscular atrophy, and respiratory disorders.

[2] = tested on: subjects suspected of having or diagnosed as having DMD; assay: Treatment of DMD in humans (Example 1); assay type: in vivo, human; conditions: for Effect of combination with one or more additional therapeutic agents: compared to peptides or additional agents alone, expected; for Severity of symptoms associated with DMD: daily 1%, 5% or 10% solution, predicted
Text: Subjects suspected of having or diagnosed as having DMD receive daily administrations of 1%, 5% or 10% solution of aromatic-cationic peptide, such as 2′6′-Dmt-D-Arg-Phe-Lys-NH2, Phe-D-Arg-Phe-Lys-NH2, or D-Arg-2′6′-Dmt-Lys-Phe-NH2, or a pharmaceutically acceptable salt thereof, such as acetate, tartrate, hydrochloride salt, or trifluoroacetate salt, alone or in combination with one or more additional therapeutic agents for the treatment or prevention of DMD. Peptides and/or additional therapeutic agents selected from the group consisting of: corticosteroids, Oxandrolone, ACE inhibitors, P188(Poloxamer 188), beta-blockers, diuretics, angiotensin receptor blockers (ARBs), idebenone, alendronate, calcium with vitamin D, albuterol, dantrolene, pentoxifylline, carnitine, Coenzyme Q10, creatine, fish oil, green tea extracts, Vitamin E, PTC-124 (PTC Therapeutics Inc., South Plainfield, N.J.), AVI-4658 phosphorodiamidate morpholino oligomer, azathioprine and cyclosporine, are administered orally, topically, systemically, intravenously, subcutaneously, intraperitoneally, or intramuscularly according to methods known in the art. Dosages of the one or more additional therapeutic agents will range between 0.1 mg/kg to 50 mg/kg. Subjects will be evaluated weekly for the presence and/or severity of signs and symptoms associated with DMD, including, but not limited to, e.g., progressive proximal weakness with onset in the legs and pelvis, hyperlordosis with wide-based gait, hypertrophy of weak muscles, pseudohypertrophy (enlargement of calf and deltoid muscles with fat and fibrotic tissue), reduced muscle contractility on electrical stimulation in advanced stages of the disease, delayed motor milestones, progressive inability to ambulate, heel cord contractures, paralysis, fatigue, skeletal deformities including scoliosis, muscle fiber deformities, cardiomyopathy, congestive heart failure or arrhythmia, muscular atrophy, and respiratory disorders. Treatments are maintained until such a time as one or more signs or symptoms of DMD are ameliorated or eliminated.

[3] = tested on: several mammalian cell types; conditions: cited from earlier work
[4] = tested on: DBA/2J-mdx mice; assay: Left ventricular mitochondrial respiration in permeabilized muscle fiber bundles (high-resolution respirometry, Oroboros Oxygraph) after 12 weeks of treatment; assay type: in vivo, mouse; conditions: 5 mg/kg daily subcutaneous for 12 weeks; for ADP, complex I-supported respiration: treated DMD mice
Description: (§1) Left ventricular mitochondrial H2O2 emission (measured by spectrofluorometry; Amplex UltraRed fluorophore) and respiration (measured by high-resolution respirometry; Oroboros Oxygraph) were assessed in permeabilized muscle fiber bundles (PmFB) from DBA/2J-mdx mice (DMD mice) that were about 4 weeks of age, DBA/2J wildtype mice (wt mice) that were about 4 weeks of age, DMD mice treated with daily subcutaneous injections of Phe-D-Arg-Phe-Lys-NH2 (5mg/kg) for 12 weeks (treated DMD mice), and DMD mice treated with daily subcutaneous injections of […] for 12 weeks (untreated DMD mice). H2O2 emission was measured in the presence of physiological ADP (25 μM). ADP is a suppressor of H2O2 emission during respiration and is affected by the phosphate-shuttling activity of mitochondrial creatine kinase (mtCK). The effect of mtCK was assessed by saturating creatine (Cr) in vitro.

[5] = tested on: DBA/2J-mdx mice; assay: Left ventricular mitochondrial H2O2 emission in permeabilized muscle fiber bundles (spectrofluorometry, Amplex UltraRed) after 12 weeks of treatment; assay type: in vivo, mouse; conditions: 5 mg/kg daily subcutaneous for 12 weeks
Description: as §1

Substance | Effect of combination with one or more additional therapeutic agents [1] | Onset of DMD [1] | Effect of combination with one or more additional therapeutic agents [2] | Severity of symptoms associated with DMD [2] | Penetration of the plasma membrane [3] | Respiration, treated vs untreated DMD mice ([4]; +Cr or —Cr) | ADP, complex I-supported respiration ([4]; +Cr) | ADP, complex I-supported respiration ([4]; —Cr) | mtCK-dependent ADP suppression of H2O2 emission, treated vs untreated DMD mice [5] | ADP-suppression of Complex I-supported H2O2, % of emission at 0 μM ADP/O2 consumed ([5]; +Cr, 25 μM ADP, treated DMD mice) | ADP-suppression of Complex I-supported H2O2, % of 0 μM ADP/O2 consumed ([5]; —Cr, 25 μM ADP, treated DMD mice)
2′6′-Dmt-D-Arg-Phe-Lys-NH2 | synergistic effects | delayed onset of DMD, or prevention of onset of DMD | synergistic effects | reduced severity or elimination of symptoms associated with DMD | readily penetrates the plasma membrane of several mammalian cell types in an energy-independent manner | – | – | – | – | – | –
D-Arg-2′6′-Dmt-Lys-Phe-NH2 | synergistic effects | delayed onset of DMD, or prevention of onset of DMD | synergistic effects | reduced severity or elimination of symptoms associated with DMD | – | – | – | – | – | – | –
F[dR]FK-NH2 | synergistic effects | delayed onset of DMD, or prevention of onset of DMD | synergistic effects | reduced severity or elimination of symptoms associated with DMD | – | did not change respiration | 111.4+/−12.0 pmol•s^−1•mg wet wt^−1 | 59.6+/−7.4 pmol•s^−1•mg wet wt^− | improved | 12+/−1% | 40+/−11%
